The source of these data is patent US20260265262A1, “CDK2 INHIBITORS AND METHODS OF USING THE SAME” (Cedilla Therapeutics, Inc., priority 2022, published 2026).

One assay deals with Kuramochi cells. Briefly: IncuCyte cell proliferation assay. The class given is cell-based. The note with it: Kuramochi cells labeled with mApple-H2B, cell count 0 to 72 hours, 20 μM top concentration; read-out: IncuCyte Kuramochi RB-WT: IC50. In a few lines:
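Kuramochi cells expressing mApple-H2B were treated with a 10-point, ½-log dilution series (top 20 μM). Fluorescent nuclei were counted by IncuCyte imaging at 0 and 72 h. The fold change in cell count was normalized to DMSO wells and fitted to dose-response curves to give […].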

Assay [1] concerns the target T1, CDK2/Cyclin E1 (Homo sapiens, UniProt P24941). Briefly: ADP-Glo Luminescent Kinase Assay (CDK2/E1-37C). The format is biochemical. The settings on record: 0.18 nM CDK2/Cyclin E1, 100 μM ATP, 1.5 μM Histone H1, 37° C., 60 min pre-incubation; read-out: ADPGLO (CDK2/E1-37C): IC50. In a few lines: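 Human CDK2/Cyclin E1 preincubated with inhibitor 60 min at 37 °C, then reacted 90 min at 37 °C with final 0.18 nM enzyme, 100 μM ATP, 1.5 μM Histone H1 in HEPES pH 7.5 buffer. ADP formed read by ADP-Glo luminescence; IC50 from four-parameter fit.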

Assay [2] concerns the target T1, CDK2/Cyclin E1. Briefly: CDK2/Cyclin E1 Caliper LabChip EZ Reader mobility shift assay. The format is biochemical. The settings on record: 2.5 nM CDK2/Cyclin E1, 100 μM ATP, 1.5 μM fluorescent peptide, 30 min pre-incubation; read-out: Caliper Assay (CDK2/CCNE1): IC50. As to the method: Inhibition of CDK2/Cyclin E1 activity in the presence of compounds of the present disclosure was evaluated using a CaliperLabChip® EZ Reader mobility shift assay. In the assay, CDK2/Cyclin E1 (Eurofins, 14-475) catalyzed the phosphorylation of a fluorescently tagged peptide 5-FAM-QSPKKG-CONH2 (PerkinEliner, FL Peptide 18) which induced a difference in capillary electrophoresis mobility. The peptide substrate and product were measured, and the conversion ratio was used to determine the inhibition (as % activity and IC50 values) of CDK2/Cyclin E1. Reactions contained 50 mM HEPES pH 7.5, 10 mM MgCl2, 1 mM EDTA, 2 mM DTT, 0.01% Brij35, 0.5 mg/mL BSA, 0.1% DMSO, 2.5 nM CDK2/Cyclin E1, 100 μM ATP, and 1.5 μM fluorescent peptide substrate.
Dose titrations of inhibitors in 100% DMSO were combined with 3.25 nM CDK2/Cyclin E1 and 130 μM of ATP in reaction buffer. The mixtures were incubated for 30 minutes before the addition of fluorescent peptide substrate to initiate the kinase reaction. The final conditions were 2.5 nM CDK2/Cyclin E1, 100 μM ATP, and 1.5 μM fluorescent peptide. The reactions were stopped after 100 minutes with the addition of EDTA (400 mM final EDTA concentration). The stopped reactions were analyzed on a Caliper LabChip® EZ Reader II. The conversion ratios were normalized to yield % activity, plotted against compound concentration, and fit to a four-parameter equation to determine the IC50 for each compound.

As for `C[C@@H](OCC1CCC2(CCC2)CC1)[C@H](NC(=O)[C@@H]1CN(C(=O)c2cnn(Cc3ccccc3)c2)CC12CN(C(=O)[C@H]1CC1(C)C)C2)C(=O)O` [Example I-40, N—((S)-6-(1-benzyl-1H-pyrazole-4-carbonyl)-2-((S)-2,2-dimethylcyclopropane-1-carbonyl)-2,6-diazaspiro[3.4]octane-8-carbonyl)-O-(spiro[3.5]nonan-7-ylmethyl)-L-threonine], the IC50 is over 20000 nM in the assay on Kuramochi cells, under 500 nM on CDK2/Cyclin E1 [1] and under 10 nM on CDK2/Cyclin E1 [2].

Take `C[C@@H](OCC1CCCCC1)[C@H](NC(=O)[C@@H]1CN(C(=O)c2cnn(Cc3ccccc3)c2)CC12CN(C(=O)[C@H]1CC1(C)C)C2)C(=O)NCCC(=O)O` [Example I-41, 3-((2S,3R)-2-((S)-6-(1-benzyl-1H-pyrazole-4-carbonyl)-2-((S)-2,2-dimethylcyclopropane-1-carbonyl)-2,6-diazaspiro[3.4]octane-8-carboxamido)-3-(cyclohexylmethoxy)butanamido)propanoic acid]: the IC50 in the assay on Kuramochi cells was over 20000 nM; on CDK2/Cyclin E1 [1], under 500 nM; on CDK2/Cyclin E1 [2], under 10 nM.

Regarding `COC(=O)CCNC(=O)[C@@H](NC(=O)[C@@H]1CN(C(=O)c2cnn(Cc3ccccc3)c2)CC12CN(C(=O)[C@H]1CC1(C)C)C2)[C@@H](C)OCC1CCCCC1` [Example I-42], the results for the IC50 with Kuramochi cells, on CDK2/Cyclin E1 [1] and on CDK2/Cyclin E1 [2] were under 500 nM, under 500 nM and under 10 nM, respectively.

Regarding `COC(=O)[C@@H](NC(=O)[C@@H]1CN(C(=O)c2cnn(Cc3ccccc3)c2)CC12CN(C(=O)[C@H]1CC1(C)C)C2)[C@@H](C)OCC1CCC2(CCC2)CC1` [Example I-43], the IC50 in the assay on Kuramochi cells was 500 to 5000 nM; at CDK2/Cyclin E1 [1], under 500 nM; at CDK2/Cyclin E1 [2], under 10 nM.

Regarding `C[C@@H](OCC12CCC(CC1)OC2)[C@H](NC(=O)[C@@H]1CN(C(=O)c2cncs2)CC12CN(CC1CCCO1)C2)C(=O)N1CCC(c2nccs2)CC1` (stereo partly drawn) [Example I-44, (8S)—N-((2S,3R)-3-((2-oxabicyclo[2.2.2]octan-4-yl)methoxy)-1-oxo-1-(4-(thiazol-2-yl)piperidin-1-yl)butan-2-yl)-2-((tetrahydrofuran-2-yl)methyl)-6-(thiazole-5-carbonyl)-2,6-diazaspiro[3.4]octane-8-carboxamide], the IC50 in the assay with Kuramochi cells is over 20000 nM; on CDK2/Cyclin E1 [1], over 100000 nM; at CDK2/Cyclin E1 [2], over 10000 nM.

Regarding `C[C@@H](OCC1CCCCC1)[C@H](NC(=O)[C@@H]1CN(C(=O)c2cnn(Cc3ccccc3)c2)CC12CN(C(=O)[C@H]1CC1(C)C)C2)C(=O)N1CCC(c2ccc(C(=O)O)cc2)CC1` [Example I-45], the IC50 is 500 to 5000 nM in the assay with Kuramochi cells, under 500 nM at CDK2/Cyclin E1 [1] and under 10 nM on CDK2/Cyclin E1 [2].

In the case of `C[C@@H](OCC1CCCCC1)[C@H](NC(=O)[C@@H]1CN(C(=O)c2cnn(Cc3ccccc3)c2)CC12CN(C(=O)[C@H]1CC1(C)C)C2)C(=O)N1CCC[C@@H](C(=O)O)C1` [Example I-46], the IC50 with Kuramochi cells was over 20000 nM; at CDK2/Cyclin E1 [1], under 500 nM; on CDK2/Cyclin E1 [2] it was under 10 nM.

Regarding `CCOC(=O)C(F)(F)CNC(=O)[C@@H](NC(=O)[C@@H]1CN(C(=O)c2cnn(Cc3ccccc3)c2)CC12CN(C(=O)[C@H]1CC1(C)C)C2)[C@@H](C)OCC1CCCCC1` [Example I-47, ethyl 3-((2S,3R)-2-((S)-6-(1-benzyl-1H-pyrazole-4-carbonyl)-2-((S)-2,2-dimethylcyclopropane-1-carbonyl)-2,6-diazaspiro[3.4]octane-8-carboxamido)-3-(cyclohexylmethoxy)butanamido)-2,2-difluoropropanoate], the values for the IC50 in the assay on Kuramochi cells, at CDK2/Cyclin E1 [1] and on CDK2/Cyclin E1 [2] were 5000 to 20000 nM, under 500 nM and under 10 nM, respectively.

Take `CNC(=O)[C@@H](NC(=O)[C@@H]1CN(C(=O)c2cncs2)CC12CN(CC1CCCO1)C2)[C@@H](C)OCC1(CO)CC=CCC1` (stereo partly drawn) [Example I-49]: the IC50 in the assay with Kuramochi cells is over 20000 nM; on CDK2/Cyclin E1 [1], over 10000 nM; at CDK2/Cyclin E1 [2], 100 to 1000 nM.
